Assay results as given in patent publication US12145944B2, “Imidazopyrimidines as EED inhibitors and the use thereof” (THE REGENTS OF THE UNIVERSITY OF MICHIGAN, priority 2019, dated 2024).
Where two headings read alike, the source gives them in different places.

What was measured:
[1] = target: T1, EED (1-441)-His protein (Homo sapiens, UniProt O75530); test: EED-H3K27Me3 peptide competition binding assay by AlphaScreen; conditions: EED Alpha screen binding assay; read-out: Alpha screen
T1 construct: 20 nM EED (1-441)-His protein
T1 sequence (O75530 whole entry): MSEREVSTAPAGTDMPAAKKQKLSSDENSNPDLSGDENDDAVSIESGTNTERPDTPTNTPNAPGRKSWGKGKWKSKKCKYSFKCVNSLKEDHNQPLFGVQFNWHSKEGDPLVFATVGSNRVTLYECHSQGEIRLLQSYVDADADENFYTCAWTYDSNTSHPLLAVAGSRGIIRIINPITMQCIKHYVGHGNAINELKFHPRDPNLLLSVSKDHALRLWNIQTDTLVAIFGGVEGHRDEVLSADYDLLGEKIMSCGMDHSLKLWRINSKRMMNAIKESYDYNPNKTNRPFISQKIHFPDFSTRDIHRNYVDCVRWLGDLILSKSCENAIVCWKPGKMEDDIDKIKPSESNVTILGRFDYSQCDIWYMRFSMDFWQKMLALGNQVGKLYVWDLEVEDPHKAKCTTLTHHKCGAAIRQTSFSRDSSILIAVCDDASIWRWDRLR
Method: “N/A” stands for “not assessed”.
EED-H3K27Me3 peptide competition binding assay by AlphaScreen (α-screen)
2.5 μl of solutions containing 20 nM biotin-H3K27Me3 (19-33) peptide in the buffer (25 mM HEPES, pH 8, 0.02% Tween-20, 0.5% BSA) were added to the wells and then incubated with compound for 30 min. […] Then 10 μl of the detection beads mix was added to the plate and incubated in the dark at RT for 1 h. The final concentration of donor and acceptor beads was 10 μg/ml for each. […] The data were then fit to a dose response equation to get the IC50 values.

[2] = tested on: KARPAS422 human B cell lymphoma cell; test: Cell proliferation, KARPAS422, 7 day treatment (WST-8); type: cell-based
Summary of the method: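 KARPAS422 cells seeded at 2 000-3 000 cells/well and exposed to serially diluted compounds for 7 days at 37 °C, 5% CO2. Growth measured by WST-8 (1-4 h, absorbance 450 nm). Readings normalized to DMSO-treated cells; IC50 from nonlinear regression.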

[3] = tested on: Pfeiffer cell line; test: Anti-proliferative activity, Pfeiffer cell line, 7 day treatment; type: cell-based; conditions: Homo sapiens, 168 h; anti-proliferative IC50 class, Pfeiffer cell line, 7 day treatment; read-out: Pfeiffer Cell line
Summary of the method: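 Cells seeded at 2 000-3 000 per well were treated with serially diluted compounds for 7 days at 37° C, 5% CO2. Growth was measured by WST-8 assay read at 450 nm after 1-4 h reagent incubation. Readings were normalized to DMSO-treated cells and IC50 values derived by nonlinear regression.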

[4] = Homo sapiens, KARPAS-422, 168 h, anti-proliferative IC50, Karpas 422 cell line, 7 day treatment, read-out: Karpas Cell line

Q: Which results are given for Fc1ccc(-c2cnc(NCc3c(F)ccc4c3CCO4)n3cnc(C(F)(F)F)c23)cc1 [compound 114, N-((5-fluoro-2,3-dihydrobenzofuran-4-yl)methyl)-8-(4-fluorophenyl)-1-(trifluoromethyl)imidazo[1,5-c]pyrimidin-5-amine]?
A: IC50 [1]: 1.48 nM; IC50 [2, 4]: > 100 nM

Q: Which IC50 [1] does the source give for CS(=O)(=O)c1ncn2c(NCc3c(F)ccc4c3CCO4)ncc(-c3ccc(F)cc3)c12 [compound 104, N-((5-fluoro-2,3-dihydrobenzofuran-4-yl)methyl)-8-(4-fluorophenyl)-1 (methylsulfonyl)imidazo[1,5-c]pyrimidin-5-amine] here?
A: 0.59 nM

Q: What about the IC50 ([2]; Homo sapiens, KARPAS-422, 168 h, read-out: Karpas Cell line (nM)) of the same compound?
A: 8.1 nM

Q: What does the source list for CCP(=O)(CC)c1ncn2c(NCc3c(F)ccc4c3CCO4)ncc(-c3ccc(C(F)(F)F)nc3)c12 [compound 120, diethyl(5-(((5-fluoro-2,3-dihydrobenzofuran-4-yl)methyl)amino)-8-(6-(trifluoromethyl)pyridin-3-yl)imidazo[1,5-c]pyrimidin-1-yl)phosphine oxide]?
A: IC50 [1]: 1.15 nM; IC50 [2, 4]: > 100 nM

Q: Which IC50 [1] does the source give for CP(C)(=O)c1ncn2c(NCc3c(F)ccc4c3CCO4)ncc(-c3ccc(C(F)F)nc3)c12 [compound 117, (8-(6-(difluoromethyl)pyridin-3-yl)-5-(((5-fluoro-2,3-dihydrobenzofuran-4-yl)methyl)amino)imidazo[1,5-c]pyrimidin-1-yl)dimethylphosphine oxide] here?
A: 0.19 nM

Q: What about the IC50 [2, 4] of the same compound?
A: 19.5 nM

Q: For CP(C)(=O)c1ncn2c(NCc3c(F)ccc4c3CCO4)ncc(-c3ccc(C(F)(F)F)nc3)c12 [compound 119, (5-(((5-fluoro-2,3-dihydrobenzofuran-4-yl)methyl)amino)-8-(6-(trifluoromethyl)pyridin-3-yl)imidazo[1,5-c]pyrimidin-1-yl)dimethylphosphine oxide], which IC50 [1] is on record?
A: 0.2 nM

Q: What about the IC50 [2, 4] of the same compound?
A: 27.9 nM

Q: Cc1ccc(-c2cnc(NCc3c(F)ccc4c3CCO4)n3cnc(C(F)(F)F)c23)c(C)n1 [compound 115, 8-(2,6-dimethylpyridin-3-yl)-N-((5-fluoro-2,3-dihydrobenzofuran-4-yl)methyl)-1-(trifluoromethyl)imidazo[1,5-c]pyrimidin-5-amine] was tested. Which IC50 [1] did it give?
A: 2.35 nM

Q: What about the IC50 [2, 4] of the same compound?
A: 50.1 nM

Q: Which results are given for “7-fluoro-12-(((5-fluoro-2,3-dihydrobenzofuran-4- yl)methyl)amino)-4-(2-fluoroethyl)-4,5-dihydro-3H- 2,4,11,12a-tetraazabenzo[4,5]cycloocta[1,2,3- cd]inden-3-one [compound 79]”?
A: IC50 [1]: 1.61 nM; IC50 ([2]; anti-proliferative IC50, Karpas 422 cell line, 7 day treatment, read-out: Karpas Cell line): 15.3 nM

Q: CCP(=O)(CC)c1ncn2c(NCc3c(F)ccc4c3CCO4)ncc(-c3ccc(C)nc3C)c12 [compound 125, (8-(2,6-dimethylpyridin-3-yl)-5-(((5-fluoro-2,3-dihydrobenzofuran-4-yl)methyl)amino)imidazo[1,5-c]pyrimidin-1-yl)diethylphosphine oxide] was tested. Which IC50 [1] did it give?
A: 27.6 nM

Q: And the IC50 [2, 4]?
A: 91.7 nM

Q: Which IC50 [1] does the source give for CP(C)(=O)c1ncn2c(NCc3c(F)ccc4c3CCO4)ncc(-c3ccc(F)cc3)c12 [compound 118, (5-(((5-fluoro-2,3-dihydrobenzofuran-4-yl)methyl)amino)-8-(4-fluorophenyl)imidazo[1,5-c]pyrimidin-1-yl)dimethylphosphine oxide] here?
A: 0.27 nM

Q: And the IC50 [2, 4]?
A: 28.4 nM

Q: With Cc1ccc(-c2cnc(NCc3c(F)ccc4c3CCO4)n3cnc(P(C)(C)=O)c23)c(C)n1 [compound 123, (8-(2,6-dimethylpyridin-3-yl)-5-(((5-fluoro-2,3-dihydrobenzofuran-4-yl)methyl)amino)imidazo[1,5-c]pyrimidin-1-yl)dimethylphosphine oxide] as the compound, how does the IC50 [1] read?
A: 4.74 nM

Q: What about the IC50 [2, 4] of the same compound?
A: 22.9 nM

Q: Cc1ccc2c(n1)CCNC(=O)c1ncn3c(NCc4c(F)ccc5c4CCO5)ncc-2c13 [E 29, 13-(((5-fluoro-2,3-dihydrobenzofuran-4-yl)methyl)amino)-8-methyl-5,6-dihydro-2,4,7,12,13a-pentaazabenzo[4,5]cyclonona[1,2,3-cd]inden-3(4H)-one] was tested. Which IC50 ([2]; Homo sapiens, KARPAS-422, 168 h, anti-proliferative IC50 class, Karpas 422 cell line, 7 day treatment, read-out: Karpas Cell line) did it give?
A: 10 to 100 nM

Q: And the IC50 [3]?
A: 10 to 100 nM
